The numbers were not newly measured in EP3305282A2, “COMPOSITION OF PRANLUKAST-CONTAINING SOLID PREPARATION WITH IMPROVED BIOAVAILABILITY AND METHOD FOR PREPARING SAME” (Sama Pharm Co., Ltd., priority 2015, dated 2016), which cites them from elsewhere.

A word on the solubility: it is how much of the substance goes into solution per volume.

The conditions of this data set: pranlukast drug substance, BCS Class II.

As for `O=C(Nc1cccc2c(=O)cc(-c3nnn[nH]3)oc12)c1ccc(OCCCCc2ccccc2)cc1` [Pranlukast, 4-oxo-8-[4-(4-phenylbutoxy)benzoylamino]-2-(tetrazol-5-yl)-4H-1-benzopyran hemihydrate], the solubility is 1.2 µg/mL.
